Test systems include Providencia stuartii; Acinetobacter sp.; Proteus mirabilis; Klebsiella aerogenes; Klebsiella sp.; Escherichia coli 55B5; Staphylococcus aureus; Salmonella typhimurium; Pseudomonas aeruginosa; Escherichia coli UB1005; Staphylococcus simulans; Micrococcus luteus; Escherichia coli D21; Bacillus megaterium; Saccharomyces cerevisiae; Aspergillus flavus; Shigella dysenteriae; Escherichia coli; Spiroplasma citri R8A2.

Test in all cases: ≥ marks a high value that may be exact or a test limit, other limits are often not marked, values filed in µg/mL are converted to µM
Assay [1] has as its system Escherichia coli NCTC 10418.
Assay [2] concerns Staphylococcus aureus NCTC 10571.
In assay [3] the test system is Escherichia coli NCTC 8007.
Assay [4] has as its system Acinetobacter baumannii ATCC 19606.
Assay [5] has as its system Pseudomonas aeruginosa ATCC 27853.
Assay [6] deals with Staphylococcus epidermidis LT1324.
The subject of assay [7] is Staphylococcus aureus II ATCC 6538P.
Assay [8] concerns Escherichia coli ATCC 25922.
The test system of assay [9] is Candida albicans ATCC 90028.
In assay [10] the test system is Candida parapsilosis ATCC 22019.
Assay [11] has as its system Staphylococcus aureus ATCC 25923.
The test system of assay [12] is Escherichia coli ATCC 35218.
The test system of assay [13] is Enterococcus faecalis ATCC 29212.
For assay [14], the system named is Candida albicans ATCC 3007.
Assay [15] relates to Shigella dysenteriae ATCC 2932.
Assay [16] relates to Escherichia coli ATCC 25629.
The test system of assay [17] is Staphylococcus aureus ATCC 2576.
Assay [18] deals with Acholeplasma laidlawii A-EF22.
Assay [19] has as its system Spiroplasma floricola BNR 1.
Assay [20] deals with Spiroplasma melliferum BC3.
In assay [21] the test system is Mycoplasma mycoides ssp. mycoides SC KH3J.

Among the data in DBAASP are MIC values, retold here.

Converted amounts (≈) assume the structure as drawn.

Usually MIC stands for the least concentration at which growth counts as inhibited. With `CC(C)[C@H](NC(=O)[C@H](CCCCN)NC(=O)[C@H](CCCN=C(N)N)NC(=O)[C@@H]1CCCN1C(=O)[C@H](CC(N)=O)NC(=O)[C@H](CCCN=C(N)N)NC(=O)[C@H](CCC(N)=O)NC(=O)[C@H](Cc1c[nH]c2ccccc12)NC(=O)[C@H](CCC(N)=O)NC(=O)[C@@H](N)Cc1ccccc1)C(=O)N[C@@H](CCCN=C(N)N)C(=O)O` [FQWQRNPRKVR], the MIC in the assay on Providencia stuartii was not below 1000 µM; in assay [1], not below 750 µM; against Acinetobacter sp., 10 µM (≈ 15.1 µg/mL); against Proteus mirabilis, not below 1000 µM; in assay [2] it was not below 250 µM; in assay [3], not below 1000 µM. Moreover, the minimum inhibitory concentration (MIC) against Klebsiella aerogenes and against Klebsiella sp. was not below 1000 µM in each case.

For the molecule `CC[C@H](C)[C@H](NC(=O)[C@H](C)N)C(=O)N[C@@H](Cc1cnc[nH]1)C(=O)N[C@@H](CCCCN)C(=O)N[C@@H](CC(C)C)C(=O)N[C@@H](C)C(=O)N[C@@H](Cc1cnc[nH]1)C(=O)N[C@@H](CCCCN)C(=O)N[C@@H](CC(C)C)C(=O)N[C@@H](CC(C)C)C(=O)N[C@@H](CCCCN)C(=O)N[C@@H](CCCCN)C(=O)N[C@H](C(=O)N[C@@H](CC(C)C)C(=O)N[C@@H](CCCN=C(N)N)C(=O)N[C@@H](C)C(=O)N[C@H](C(=O)N[C@@H](CCCCN)C(=O)N[C@@H](CCCCN)C(=O)N[C@@H](CC(C)C)C(=O)N[C@@H](C)C(=O)N[C@@H](CC(N)=O)C(=O)O)C(C)C)[C@@H](C)O` [AIHKLAHKLLKKTLRAVKKLAN], the minimal inhibitory concentration (MIC) amounted to 5.2 µM (≈ 13 µg/mL) in the assay with Escherichia coli 55B5; 30 µM (≈ 74.9 µg/mL) in the assay on Staphylococcus aureus; 8.5 µM (≈ 21.2 µg/mL) in the assay with Salmonella typhimurium; 10.5 µM (≈ 26.2 µg/mL) against Pseudomonas aeruginosa; 5.5 µM (≈ 13.7 µg/mL) in the assay with Escherichia coli UB1005.

On to `CC(C)C[C@H](NC(=O)[C@H](CC(C)C)NC(=O)[C@H](CCCCN)NC(=O)[C@H](CC(C)C)NC(=O)[C@H](CC(C)C)NC(=O)[C@H](CCCCN)NC(=O)[C@H](CC(C)C)NC(=O)[C@H](CC(C)C)NC(=O)[C@H](CCCCN)NC(=O)[C@H](CC(C)C)NC(=O)[C@H](CC(C)C)NC(=O)[C@H](CCCCN)NC(=O)[C@H](CC(C)C)NC(=O)[C@@H](N)CCCCN)C(=O)N[C@@H](CCCCN)C(N)=O` [KLKLLKLLKLLKLLK], for which the MIC was 2 µM (≈ 3.61 µg/mL) in [4]; 6 µM (≈ 10.8 µg/mL) in [5]; 1.5 µM (≈ 2.71 µg/mL) against Staphylococcus simulans; 1.5 µM (≈ 2.71 µg/mL) in assay [6]; 2 µM (≈ 3.61 µg/mL) against Micrococcus luteus; 6 µM (≈ 10.8 µg/mL) in [7]. Further, the MIC (in assay [8]; in the assay on Escherichia coli D21) was 3 µM (≈ 5.41 µg/mL) throughout.

In the case of `CC[C@H](C)[C@H](NC(=O)[C@@H]1CCCN1C(=O)[C@H](CC(C)C)NC(=O)[C@@H](N)Cc1ccccc1)C(=O)N[C@H](C(=O)N[C@H](C(=O)N[C@@H](CC(N)=O)C(=O)N[C@@H](CC(C)C)C(=O)N[C@@H](CC(C)C)C(=O)N[C@@H](CO)C(=O)NCC(=O)N[C@@H](CC(C)C)C(=O)N[C@@H](CC(C)C)C(=O)O)[C@@H](C)O)C(C)C` [FLPIVTNLLSGLL], the MIC in [5] was more than 231 µM; in the assay on Bacillus megaterium, not below 46 µM; in [9] it was not below 116 µM; with Saccharomyces cerevisiae it was not below 116 µM; in assay [10], not below 116 µM; in assay [11], 58 µM (≈ 81.2 µg/mL). Also, the MIC in the assay on Aspergillus flavus was not below 58 µM; in assay [12], not below 116 µM; in assay [8], 231 µM (≈ 323 µg/mL); in [13], more than 116 µM.

In the case of `CC[C@H](C)[C@H](NC(=O)CN)C(=O)N[C@@H](CC(C)C)C(=O)N[C@@H](CCCCN)C(=O)N[C@@H](CCCCN)C(=O)N[C@@H](Cc1ccccc1)C(=O)N[C@@H](CCSC)C(=O)N[C@@H](CC(C)C)C(=O)N[C@@H](Cc1cnc[nH]1)C(=O)N[C@@H](CCCN=C(N)N)C(=O)NCC(=O)N[C@H](C(=O)N[C@@H](CCCCN)C(=O)N[C@H](C(=O)N[C@@H](Cc1ccc(O)cc1)C(=O)N[C@@H](CCCCN)C(=O)N[C@@H](CCSC)C(=O)N[C@@H](CCCN=C(N)N)C(=O)N[C@H](C(=O)N[C@@H](CC(C)C)C(=O)N[C@@H](CO)C(=O)N[C@@H](CCCCN)C(=O)N[C@@H](CCCN=C(N)N)C(=O)N[C@@H](CO)C(=O)N[C@@H](Cc1cnc[nH]1)C(=O)O)[C@@H](C)O)C(C)C)[C@@H](C)O` [GILKKFMLHRGTKVYKMRTLSKRSH], the minimal inhibitory concentration (MIC) against Shigella dysenteriae was found to be 1.66 µM (≈ 5 µg/mL); in the assay with Staphylococcus aureus it was 0.332 µM (≈ 1 µg/mL); in [14], 2.49 µM (≈ 7.5 µg/mL); in the assay with Escherichia coli, 1.66 µM (≈ 5 µg/mL); in assay [15] it was 0.829 µM (≈ 2.5 µg/mL); in assay [16], 1.66 µM (≈ 5 µg/mL). In addition, the MIC in assay [17] stood at 0.166 µM (≈ 0.5 µg/mL).

Turning to `CC(C)C[C@H](NC(=O)[C@H](CC(C)C)NC(=O)[C@H](CCCCN)NC(=O)[C@H](CC(C)C)NC(=O)[C@H](CC(C)C)NC(=O)[C@H](CC(C)C)NC(=O)[C@H](CCCCN)NC(=O)[C@H](CC(C)C)NC(=O)[C@H](CC(C)C)NC(=O)[C@H](CC(C)C)NC(=O)[C@H](CCCCN)NC(=O)[C@H](CC(C)C)NC(=O)[C@H](CC(C)C)NC(=O)[C@@H](N)CCCCN)C(=O)N[C@@H](CCCCN)C(=O)O` [KLLKLLLKLLLKLLK], the MIC in [18] came to 1.56 µM (≈ 2.79 µg/mL); in the assay on Spiroplasma citri R8A2 it was 6.25 µM (≈ 11.2 µg/mL); in assay [19], 6.25 µM (≈ 11.2 µg/mL); in [20], 6.25 µM (≈ 11.2 µg/mL); in assay [21], 6.25 µM (≈ 11.2 µg/mL).
